Assay results as given in the supplement of paper PMC10307832.

Experiments:
Assay in all cases: relative viability (nuclei count vs DMSO), 5 days (fraction); higher = more cells survive
Crenolanib + Dasatinib = compound: CC1(COc2ccc3c(c2)ncn3-c2ccc3cccc(N4CCC(N)CC4)c3n2)COC1 [Crenolanib] + Cc1nc(Nc2ncc(C(=O)Nc3c(C)cccc3Cl)s2)cc(N2CCN(CCO)CC2)n1 [Dasatinib] (partner 0.075 µM)
How it was run: (§1)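 Values are medians from duplicate plates. Each reflects relative viability, defined as the nuclei count of treated wells over that of vehicle wells. Lung cancer cell lines in 1536-well plates were pin-tool dosed one day after seeding with one drug alone or with a fixed anchor-drug dose plus five library-drug doses (not always all listed) in √10 steps, then fixed, stained and imaged at 4× after 5 days.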

Tivantinib + Trametinib = compound: O=C1NC(=O)[C@@H](c2cn3c4c(cccc24)CCC3)[C@@H]1c1c[nH]c2ccccc12 [Tivantinib] + CC(=O)Nc1cccc(-n2c(=O)n(C3CC3)c(=O)c3c(Nc4ccc(I)cc4F)n(C)c(=O)c(C)c32)c1 [Trametinib] (partner 0.02 µM)
How it was run: as §1

Tivantinib + Foretinib = compound: O=C1NC(=O)[C@@H](c2cn3c4c(cccc24)CCC3)[C@@H]1c1c[nH]c2ccccc12 [Tivantinib] + COc1cc2c(Oc3ccc(NC(=O)C4(C(=O)Nc5ccc(F)cc5)CC4)cc3F)ccnc2cc1OCCCN1CCOCC1 [Foretinib] (partner 0.25 µM)
How it was run: as §1

Tivantinib + Pictilisib = compound: O=C1NC(=O)[C@@H](c2cn3c4c(cccc24)CCC3)[C@@H]1c1c[nH]c2ccccc12 [Tivantinib] + CS(=O)(=O)N1CCN(Cc2cc3nc(-c4cccc5[nH]ncc45)nc(N4CCOCC4)c3s2)CC1 [Pictilisib] (partner 1 µM)
How it was run: as §1

Cell Line | relative viability (Crenolanib + Dasatinib; first compound 0.01 µM) | relative viability (Crenolanib + Dasatinib; first compound 0.03162 µM) | relative viability (Crenolanib + Dasatinib; first compound 0.3162 µM) | relative viability (Crenolanib + Dasatinib; first compound 1 µM) | relative viability (Tivantinib + Trametinib; first compound 0.01 µM) | relative viability (Tivantinib + Trametinib; first compound 0.03162 µM) | relative viability (Tivantinib + Trametinib; first compound 0.1 µM) | relative viability (Tivantinib + Trametinib; first compound 0.3162 µM) | relative viability (Tivantinib + Foretinib; first compound 0.01 µM) | relative viability (Tivantinib + Foretinib; first compound 0.03162 µM) | relative viability (Tivantinib + Foretinib; first compound 0.1 µM) | relative viability (Tivantinib + Foretinib; first compound 0.3162 µM) | relative viability (Tivantinib + Pictilisib; first compound 0.01 µM) | relative viability (Tivantinib + Pictilisib; first compound 0.03162 µM) | relative viability (Tivantinib + Pictilisib; first compound 0.1 µM) | relative viability (Tivantinib + Pictilisib; first compound 0.3162 µM) | relative viability (Crenolanib + Dasatinib; first compound 0.1 µM)
HCC-78 | 0.389 | 0.314 | 0.354 | 0.275 | 0.761 | 0.696 | 0.589 | 0.445 | 0.548 | 0.547 | 0.539 | 0.441 | 0.241 | 0.177 | 0.204 | 0.196 | –
HOP-62 | 0.658 | 0.703 | 0.769 | 0.684 | 0.458 | 0.346 | 0.356 | 0.37 | 1.17 | 1.02 | 1.06 | 1.14 | 0.708 | – | 0.864 | 0.792 | 0.578
NCI-H1623 | 0.55 | 0.515 | 0.558 | 0.504 | – | – | – | – | 0.87 | 0.745 | 0.818 | – | – | – | – | – | 0.548
NCI-H2405 | 0.225 | 0.214 | 0.181 | 0.196 | 0.771 | 0.63 | 0.615 | 0.597 | 1.16 | 1.07 | 1.05 | 0.98 | 0.509 | 0.43 | 0.381 | 0.4 | –
PC-3 [JPC-3] | 0.989 | 0.974 | 1.12 | 1.06 | 0.731 | 0.726 | 0.693 | 0.513 | 1 | 1.12 | 1.06 | 0.904 | 0.687 | 0.705 | 0.765 | 0.637 | 0.974
NCI-H1666 | 0.791 | 0.854 | 0.819 | 0.745 | 0.815 | 0.786 | 0.827 | 0.814 | 0.936 | 1.01 | 0.979 | 0.827 | 0.552 | 0.352 | 0.43 | 0.401 | 0.745
HCC-15 | 0.645 | 0.678 | 0.701 | 0.545 | 0.387 | 0.371 | 0.36 | 0.337 | 1.04 | 1.01 | 0.991 | 0.986 | 0.705 | 0.671 | 0.674 | 0.799 | 0.66
NCI-H1651 | 0.504 | 0.377 | 0.531 | 0.336 | 0.801 | 0.798 | 0.825 | 0.787 | 0.931 | 0.813 | 0.769 | 0.691 | 0.622 | 0.448 | 0.545 | 0.614 | 0.373
NCI-H1395 | 0.406 | 0.387 | 0.37 | 0.403 | 0.987 | 1.11 | 1.02 | 0.83 | 1.11 | 1.03 | 0.966 | 0.828 | 0.581 | 0.595 | 0.571 | 0.61 | 0.39
EPLC-272H | 0.35 | 0.349 | 0.391 | 0.532 | 0.346 | 0.27 | 0.265 | 0.227 | 0.776 | 0.593 | 0.787 | 0.0941 | 0.346 | 0.3 | 0.357 | 0.278 | 0.317
LXF-289 | 0.194 | 0.228 | 0.237 | 0.229 | 0.628 | 0.631 | 0.628 | 0.669 | 0.96 | 0.927 | 0.95 | 0.983 | 0.815 | 0.769 | 0.703 | 0.817 | 0.253
NCI-H1437 | 0.403 | 0.369 | 0.377 | 0.42 | 0.637 | 0.464 | 0.441 | 0.514 | 1.26 | 1.34 | 1.3 | 1.25 | 0.379 | 0.308 | 0.416 | 0.407 | 0.361
HCC-827 | 0.338 | 0.33 | 0.366 | 0.396 | 0.54 | 0.576 | 0.461 | – | 1.01 | 1.12 | 0.957 | 0.485 | 1.15 | 1.01 | 0.983 | 0.415 | 0.398
NCI-H1650 | 0.301 | 0.338 | 0.285 | 0.32 | 0.451 | 0.663 | 0.666 | 0.536 | 1.08 | 1.11 | 1.02 | 0.972 | 0.561 | 0.389 | 0.589 | 0.605 | 0.29
HCC-366 | 0.655 | 0.662 | 0.648 | 0.519 | 0.355 | 0.523 | 0.338 | 0.332 | 0.89 | 0.852 | 0.929 | 0.912 | 0.157 | 0.147 | 0.119 | 0.141 | 0.593
EKVX | 0.519 | 0.473 | 0.591 | 0.512 | 0.408 | 0.437 | 0.325 | 0.146 | 0.714 | 0.841 | 0.761 | – | 0.449 | 0.381 | 0.417 | 0.163 | 0.561
NCI-H2126 | 0.595 | 0.635 | 0.74 | 0.616 | 0.522 | 0.549 | 0.573 | 0.545 | 1.16 | 1.12 | 1.04 | 0.829 | 0.51 | 0.446 | 0.496 | 0.478 | 0.604
LK-2 | 0.378 | 0.253 | 0.231 | 0.249 | 0.723 | 0.454 | 0.683 | 0.518 | 1.48 | – | 1.16 | 0.929 | 0.685 | – | 0.567 | 0.496 | 0.382
NCI-H1563 | 0.452 | 0.41 | 0.464 | 0.452 | – | – | – | – | 0.98 | 0.892 | 0.819 | 0.783 | 0.608 | 0.6 | 0.651 | 0.674 | 0.472
COR-L23 | 0.497 | 0.466 | 0.54 | 0.417 | 0.634 | 0.558 | 0.545 | 0.661 | 1.01 | 0.953 | 0.893 | 1.04 | 0.809 | 0.63 | 0.762 | 0.98 | 0.475
